In patent US9302999B2, “Substituted triazoles as herbicides” (E. I. DU PONT DE NEMOURS AND COMPANY, priority 2012, dated 2016) one finds plant injury, Corn plant response rating (crop injury, 0 = no effect, 100 = complete kill) and pest or weed control data, which are given here for two compounds.

Format in all cases: in vivo
Test [1] deals with wheat (Triticum aestivum). Kind of test: Test A pre-/postemergence: wheat. The note with it: Triticum aestivum, 240 h; for plant injury at 125 g/ha: 125 g ai/ha; for plant injury at 500 g/ha: 500 g ai/ha. In a few lines:
(§1)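 Visual 0–100 injury ratings (0 no effect, 100 complete control) taken about ten days after treatment, relative to untreated controls. Preemergence treatment was a directed soil spray; postemergence plants were 2–10 cm tall at one- to two-leaf stage. Soil: loam/sand blend.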

A further test deals with corn (Zea mays). Kind of test: Test A pre-/postemergence: corn. The note with it: Zea mays, 240 h; for plant injury at 125 g/ha / plant injury at 500 g/ha: post-emergence, Postemergence, read-out: Corn plant response rating; for plant injury at 125 g/ha / Corn plant response rating (crop injury, 0 = no effect, 100 = complete kill) at 125 g/ha: 125 g ai/ha; for plant injury at 500 g/ha / Corn plant response rating (crop injury, 0 = no effect, 100 = complete kill) at 500 g/ha: 500 g ai/ha; for plant injury at 500 g/ha: visual rating on 0 to 100 scale (0 no effect, 100 complete control), approximately ten days; for Corn plant response rating (crop injury, 0 = no effect, 100 = complete kill) at 125 g/ha / Corn plant response rating (crop injury, 0 = no effect, 100 = complete kill) at 500 g/ha: pre-emergence, Preemergence. In outline: as §1

Test [2] concerns pigweed (Amaranthus retroflexus). Kind of test: Test A pre-/postemergence: pigweed. The note with it: Amaranthus retroflexus, 240 h; for pest or weed control at 125 g/ha: 125 g ai/ha; for pest or weed control at 500 g/ha: 500 g ai/ha. In outline:
as §1

The subject of test [3] is velvetleaf (Abutilon theophrasti). As to the kind of experiment: Test A pre-/postemergence: velvetleaf. The note with it: Abutilon theophrasti, 240 h; for pest or weed control at 125 g/ha: 125 g ai/ha; for pest or weed control at 500 g/ha: 500 g ai/ha. In a few lines:
as §1

In test [4] the test system is morningglory (Ipomoea spp.). Kind of test: Test A pre-/postemergence: morningglory. The note with it: Ipomoea, 240 h; for pest or weed control at 125 g/ha: 125 g ai/ha; for pest or weed control at 500 g/ha: 500 g ai/ha. In a few lines: as §1
[5] abbreviates: post-emergence, Postemergence, 0 to 100 scale, 0 is no effect, 100 is complete control, read-out: Wheat plant response rating.
The mark [6] stands for this setting: post-emergence, Postemergence, visual rating on 0 to 100 scale (0 no effect, 100 complete control), approximately ten days, read-out: Wheat plant response rating.
[7] abbreviates: pre-emergence, Preemergence, 0 to 100 scale (0 no effect, 100 complete control), read-out: Plant response rating, Wheat.
Setting [8] is: 0 to 100 scale, 0 is no effect, 100 is complete control.
[9] abbreviates: 0 to 100 scale (0 no effect, 100 complete control).
[10] abbreviates: post-emergence, Postemergence, 0 to 100 scale, 0 is no effect, 100 is complete control, read-out: Pigweed plant response rating.
The mark [11] stands for this setting: post-emergence, Postemergence, visual rating on 0 to 100 scale (0 no effect, 100 complete control), approximately ten days, read-out: Pigweed plant response rating.
Setting [12] is: pre-emergence, Preemergence, 0 to 100 scale (0 no effect, 100 complete control), read-out: Plant response rating, Pigweed.
Setting [13] is: post-emergence, Postemergence, 0 to 100 scale, 0 is no effect, 100 is complete control, read-out: Velvetleaf plant response rating.
The mark [14] stands for this setting: post-emergence, Postemergence, visual rating on 0 to 100 scale (0 no effect, 100 complete control), approximately ten days, read-out: Velvetleaf plant response rating.
[15] abbreviates: pre-emergence, Preemergence, 0 to 100 scale (0 no effect, 100 complete control), read-out: Plant response rating, Velvetleaf.
The mark [16] stands for this setting: post-emergence, Postemergence, 0 to 100 scale, 0 is no effect, 100 is complete control, read-out: Morningglory plant response rating.
Where [17] appears, read: post-emergence, Postemergence, visual rating on 0 to 100 scale (0 no effect, 100 complete control), approximately ten days, read-out: Morningglory plant response rating.
[18] abbreviates: pre-emergence, Preemergence, 0 to 100 scale (0 no effect, 100 complete control), read-out: Plant response rating, Morningglory.

Where two headings read alike, the source gives them in different places.

As to `CCc1nn(-c2ccc(C(F)(F)F)cc2)nc1Oc1cccc(OC(F)(F)F)c1` [Compound 125, 4-ethyl-5-[3-(trifluoromethoxy)phenoxy]-2-[4-(trifluoromethyl)phenyl]-2H-1,2,3-triazole], the plant injury at 125 g/ha in test [1] (setting [5]) came to 0%; in test [1] (pre-emergence, Preemergence, 0 to 100 scale where 0 is no effect and 100 is complete control, read-out: Plant response rating, Wheat), 0%; in the test with corn (Zea mays) (setting [8]) it was 20%. For the same compound, the plant injury at 500 g/ha in test [1] (setting [6]) came to 20%; in test [1] (setting [7]), 0%; with corn (Zea mays), 30%. For the same compound, the Corn plant response rating (crop injury, 0 = no effect, 100 = complete kill) at 125 g/ha with corn (Zea mays) (0 to 100 scale where 0 is no effect and 100 is complete control) came to 0%. In the test with corn (Zea mays) (setting [9]), this compound gave a Corn plant response rating (crop injury, 0 = no effect, 100 = complete kill) at 500 g/ha of 0%. Moreover, the pest or weed control at 125 g/ha was found to be 90% in test [2] (setting [10]); 70% in test [2] (pre-emergence, Preemergence, 0 to 100 scale where 0 is no effect and 100 is complete control, read-out: Plant response rating, Pigweed); 30% in test [3] (setting [13]); 0% in test [3] (pre-emergence, Preemergence, 0 to 100 scale where 0 is no effect and 100 is complete control, read-out: Plant response rating, Velvetleaf); 60% in test [4] (setting [16]); 0% in test [4] (pre-emergence, Preemergence, 0 to 100 scale where 0 is no effect and 100 is complete control, read-out: Plant response rating, Morningglory). For the same compound, the pest or weed control at 500 g/ha in test [2] (setting [11]) was 100%; in test [2] (setting [12]), 90%; in test [3] (setting [14]), 70%; in test [3] (setting [15]) it was 50%; in test [4] (setting [17]), 100%; in test [4] (setting [18]) it was 10%.

`COc1nn(-c2ccc(C(F)(F)F)cc2)nc1Cn1ccc(C(F)(F)F)n1` [Compound 17, 4-methoxy-2-[4-(trifluoromethyl)phenyl]-5-[[3-(trifluoromethyl)-1H-pyrazol-1-yl]methyl]-2H-1,2,3-triazole]: the results for the plant injury at 125 g/ha (in test [1] (setting [5]); in test [1] (setting [7]); in the test on corn (Zea mays) (setting [8])) were 20%, 0% and 30%, respectively. Besides, the plant injury at 500 g/ha was 40% in test [1] (setting [6]); 0% in test [1] (pre-emergence, Preemergence, 0 to 100 scale, 0 is no effect, 100 is complete control, read-out: Plant response rating, Wheat); 30% in the test with corn (Zea mays). Also, in the test on corn (Zea mays) (setting [9]), the Corn plant response rating (crop injury, 0 = no effect, 100 = complete kill) at 125 g/ha was 0%. The Corn plant response rating (crop injury, 0 = no effect, 100 = complete kill) at 500 g/ha in the test with corn (Zea mays) (setting [8]) is 20%. For the same compound, the pest or weed control at 125 g/ha worked out at 90% in test [2] (setting [10]); 90% in test [2] (setting [12]); 90% in test [3] (setting [13]); 30% in test [3] (setting [15]); 50% in test [4] (setting [16]); 0% in test [4] (setting [18]). The pest or weed control at 500 g/ha stood at 100% in test [2] (setting [11]); 100% in test [2] (pre-emergence, Preemergence, 0 to 100 scale, 0 is no effect, 100 is complete control, read-out: Plant response rating, Pigweed); 100% in test [3] (setting [14]); 40% in test [3] (pre-emergence, Preemergence, 0 to 100 scale, 0 is no effect, 100 is complete control, read-out: Plant response rating, Velvetleaf); 90% in test [4] (setting [17]); 50% in test [4] (pre-emergence, Preemergence, 0 to 100 scale, 0 is no effect, 100 is complete control, read-out: Plant response rating, Morningglory).
